Laboratory results: US20020143013A1, “Thioxazinoquinolones as antiviral agents” (priority 2001, published 2002)

Target: T1, HCMV polymerase (Human cytomegalovirus, UniProt P08546)
T1 construct: made in house; host or cells: recombinant baculovirus-infected SF-9 cells
Experiment: HCMV polymerase assay (modified scintillation proximity assay)
Format: biochemical
Conditions: modified SPA assay; compounds diluted in 100% DMSO; 4.5 mM DTT in polymerase buffer
Protocol: The HCMV polymerase assay is performed using a scintillation proximity assay (SPA) as described in several references, such as N. D. Cook, et al., Pharmaceutical Manufacturing International, pages 49-53 (1992); K. Takeuchi, Laboratory Practice, September issue (1992); U.S. Pat. No. 4,568,649 (1986); which are incorporated by reference herein. Reactions are performed in 96-well plates. The assay is conducted in 100 μl volume with 5.4 mM HEPES (pH 7.5), 11.7 mM KCl, 4.5 mM MgCl2, 0.36 mg/ml BSA, and 90 nM ^3H-dTTP. Assays are run with and without CHAPS, (3-[(3-Cholamidopropyl)-dimethylammonio]-1-propane-sulfonate) at a final concentration of 2 mM. HCMV polymerase is diluted in enzyme dilution buffer containing 50% glycerol, 250 mM NaCl, 10 mM HEPES (pH 7.5), 100 μg/ml BSA, and 0.01% sodium azide. The HCMV polymerase, which is expressed in recombinant baculovirus-infected SF-9 cells and purified according to literature procedures, is added at 10% (or 10 μl) of the final reaction volume, i.e., 100 μl. Compounds are diluted in 50% DMSO and 10 μl are added to each well. Control wells contain an equivalent concentration of DMSO. […] Plates are incubated 10 min. at 37 C., then equilibrated to room temperature, and counted on a Packard Topcount. Linear regressions are performed and IC50's are calculated using computer software. […]

T1 sequence (P08546 whole entry): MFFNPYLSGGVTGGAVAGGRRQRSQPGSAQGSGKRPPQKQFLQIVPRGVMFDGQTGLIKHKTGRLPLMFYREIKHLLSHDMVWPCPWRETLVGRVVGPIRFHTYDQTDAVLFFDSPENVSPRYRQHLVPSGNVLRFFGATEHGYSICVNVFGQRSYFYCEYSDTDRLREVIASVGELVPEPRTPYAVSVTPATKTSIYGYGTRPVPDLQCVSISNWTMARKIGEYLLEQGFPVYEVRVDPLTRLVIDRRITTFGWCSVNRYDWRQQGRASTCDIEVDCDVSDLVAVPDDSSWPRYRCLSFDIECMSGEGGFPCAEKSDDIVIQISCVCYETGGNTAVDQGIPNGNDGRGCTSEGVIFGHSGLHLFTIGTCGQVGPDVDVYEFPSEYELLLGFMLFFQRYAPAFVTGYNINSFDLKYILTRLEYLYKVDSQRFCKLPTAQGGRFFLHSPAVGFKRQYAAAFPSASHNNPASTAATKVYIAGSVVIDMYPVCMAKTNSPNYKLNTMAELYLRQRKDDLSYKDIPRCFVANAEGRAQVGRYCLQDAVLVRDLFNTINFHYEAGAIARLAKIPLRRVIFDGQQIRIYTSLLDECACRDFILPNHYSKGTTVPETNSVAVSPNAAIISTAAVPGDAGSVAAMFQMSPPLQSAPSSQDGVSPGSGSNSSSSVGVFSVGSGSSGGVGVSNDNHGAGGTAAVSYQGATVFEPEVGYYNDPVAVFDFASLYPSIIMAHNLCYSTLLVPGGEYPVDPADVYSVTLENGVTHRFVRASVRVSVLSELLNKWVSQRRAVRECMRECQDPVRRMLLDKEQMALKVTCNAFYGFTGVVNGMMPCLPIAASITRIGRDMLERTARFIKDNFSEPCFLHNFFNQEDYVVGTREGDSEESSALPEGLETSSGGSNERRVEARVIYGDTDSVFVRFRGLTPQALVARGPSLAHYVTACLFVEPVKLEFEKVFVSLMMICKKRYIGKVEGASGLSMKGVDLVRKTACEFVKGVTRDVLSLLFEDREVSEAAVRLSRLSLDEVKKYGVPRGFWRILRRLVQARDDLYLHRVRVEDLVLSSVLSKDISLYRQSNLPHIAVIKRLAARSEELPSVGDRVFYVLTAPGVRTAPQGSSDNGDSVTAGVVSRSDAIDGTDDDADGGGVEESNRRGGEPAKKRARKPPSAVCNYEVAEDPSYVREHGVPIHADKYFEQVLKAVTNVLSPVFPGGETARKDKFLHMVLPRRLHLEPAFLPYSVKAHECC

In the case of `O=C(NCc1ccc(Cl)cc1)c1cn2c3c(cc(CN4CCOCC4)cc3c1=S)OCC2` [Example 1, N-(4-chlorobenzyl)-9-(4-morpholinylmethyl)-7-thioxo-2,3-dihydro-7H-[1,4]oxazino[2,3,4-ij]quinoline-6-carboxamide], the IC50 is reported as 0.06 µM.
